Data from paper PMC9455805, “Preparation, Characterization and In Vitro Stability of a Novel ACE-Inhibitory Peptide from Soybean Protein” (Foods, 2022).
“Also recorded” adds a separate entry of the source. Where two headings read alike, the source gives them in different places. Peptide text beside a SMILES is read from it.

Legend:
[1] = system: pepsin and pancreatin; assay: In vitro simulated gastrointestinal digestion, then ACE-inhibitory activity assay and ESI-MS; format: in vitro ADME
Experimental: Pepsin (1 mg) was added, and the mixture was stirred at 37 °C for 2 h. Then, the pH was adjusted to 6 with 0.9 M NaHCO3, and afterwards to 7.5 with 1 M NaOH. Pancreatin (1 mg) was added, and the solution was incubated at 37 °C for 4 h.

[2] = system: ACE; design: method as in 5 sources, ref 34 = [34]; PMID 12843654; doi:10.1271/bbb.67.1278; 34. Kuba M. Tanaka K. Tawata S. Takeda Y. Yasuda M. Angiotensin I-converting enzyme inhibitory peptides isolated from tofuyo fermented soybean food Biosci. Biotechnol. Biochem. 2003 67 1278 1283 10.12 ||| ref 33 = [33]; PMID 25410725; doi:10.1002/bab.1321; 33. Sornwatana T. Bangphoomi K. Roytrakul S. Wetprasit N. Choowongkomon K. Ratanapo S. Chebulin: Terminalia chebula Retz. fruit-derived peptide with angiotensin-I–converting enzyme inhibitory activity ||| ref 35 = [35]; doi:10.1016/j.foodchem.2010.05.026; 35. Jiang Z. Tian B. Brodcrob A. Huo G. Production, analysis and in vivo evaluation of novel angiotensin-I-converting enzyme inhibitory peptides from bovine casein Food Chem. 2010 123 779 786 10.1016/ ||| ref 7 = [7]; doi:10.1016/j.foodchem.2009.04.086; 7. Lee S.H. Qian Z.J. Kim S.K. A novel angiotensin I converting enzyme inhibitory peptide from tuna frame protein hydrolysate and its antihypertensive effect in spontaneously hypertensive rats Food Ch ||| ref 36 = [36]; PMID 23140680; doi:10.1016/j.foodchem.2011.01.010; 36. Jang J.H. Jeong S.C. Kim J.H. Lee Y.H. Ju Y.C. Lee J.S. Characterisation of a new antihypertensive angiotensin I-converting enzyme inhibitory peptide from Pleurotus cornucopiae Food Chem. 2011 127; conditions: cited from earlier work; for IC50: read-out: IC50 (ACE, non-competitive peptide)
[3] = from Pleurotus cornucopiae mushroom

## N=C(N)NCCC[C@H](NC(=O)[C@H](CC(=O)O)NC(=O)[C@@H](N)CC(N)=O)C(=O)N1CCC[C@H]1C(=O)O [NDRP] (H-NDRP-OH)
[1]; 10 mg mL−1 in H2O, pepsin, pH 2, 37 °C, 2 h, then pancreatin, pH 7.5, 37 °C, 4 h, enzymes deactivated in boiling water bath 10 min, freeze-dried, read-out ACE assay
  maximal ACE inhibition of the in vitro-digested sample: 82.47 ± 1.07%
[1]; after pepsin (pH 2, 2 h) and pancreatin (pH 7.5, 4 h) at 37 °C, ratio of maximal ACE inhibition, digested vs pure NDRP
  residual ACE-inhibitory activity of the digested sample relative to pure peptide: 94%
[1]; pepsin (pH 2, 2 h) then pancreatin (pH 7.5, 4 h), 37 °C, ACE assay and ESI-MS (peak of intact peptide observed)
  stability toward in vitro simulated gastrointestinal digestion (in words): stable towards gastrointestinal simulated digestion; also recorded: might be resistant to gastrointestinal digestion; also recorded: highly stable

## DENSKF
[2]; from fruits of T. chebula Retz.
  IC50: 100 µM

## DERF
[2]; from bovine casein hydrolysate
  IC50 (ACE, non-competitive peptide): 21 µg/mL

## GDLGKTTTVSNWSPPKYKDTP
[2]; from tuna frame protein hydrolysate
  IC50: 11.3 µM

## RLPSEFDLSAFLRA
[2]; [3]
  IC50 (ACE, non-competitive peptide): 450 µg/mL

## RLSGQTIEVTSEYLFRH
[2]; [3]
  IC50 (ACE, non-competitive peptide): 1100 µg/mL

## RYPSYG
[2]; from bovine casein hydrolysate
  IC50 (ACE, non-competitive peptide): 54 µg/mL
